Usually Ki stands for the dissociation constant of the complex between target and ligand, obtained from inhibition or displacement. The IC50 is the midpoint of a concentration-inhibition curve.

The results in this text go back to article PMC12079242, “Design, Synthesis, Biological Evaluation, and Molecular Docking Studies of Novel 1,3,4-Thiadiazole Derivatives Targeting Both Aldose Reductase and α-Glucosidase for Diabetes Mellitus” (ACS Omega, 2025).

Test [1] deals with α-Glucosidase from Saccharomyces cerevisiae. The test is described as follows: α-Glycosidase inhibition assay with pNPG substrate. It is filed as biochemical. As for the experimental part: α-Glucosidase activity (α-Glucosidase from Saccharomyces cerevisiae) was assessed using p-nitrophenyl-D-glycopyranoside (pNPG) as the substrate, following the procedure outlined by Tao et al.[60],[61] Initially, 100 μL of phosphate buffer was mixed with 20 μL of the enzyme solution (0.15 U/mL, pH 6.8) and 10–100 μL (0.01–1 mg/mL^–1) of the sample. To ensure complete enzyme inhibition, multiple solutions were prepared in phosphate buffer. The mixture was preincubated at 35 °C for 12 min before the reaction was initiated by adding pNPG. Subsequently, 50 μL of pNPG solution (5.0 mM, pH 7.4) was added and incubated at 37 °C. Absorbance was measured spectrophotometrically at 405 nm.
Furthermore, the types of inhibition and inhibition constants (KI) were calculated from Lineweaver–Burk plots, providing detailed insights into the kinetic properties of these inhibitors.[62],[63]

In test [2] the test system is L929 fibroblast cell line. The test is described as follows: MTT cell viability assay. It is filed as cell-based. Conditions: Mus musculus; L929, 24 h incubation, 5–100 μM. As for the experimental part:
Healthy mouse fibroblast cell line (L929) was obtained from ATCC (American Type Culture Collection) and studied. Cells were mixed with 89% DMEM (Dulbecco’s modified Eagle’s medium; Gibco, Thermo Fisher Scientific), 10% FBS (Fetal Bovine Serum; Sigma-Aldrich) and 1% penicillin (Sigma-Aldrich) solutions. The cells in which the medium was added were allowed to grow by incubating at 37 °C in an environment containing 95% humidity and 5% CO2.[66],[67]
The cytotoxic effects of all syntheses by MTT analysis on L929 cell line was investigated. 96-well plates were used for seeding cells. Approximately 1 × 10^4 cells were seeded in each well. Cells were allowed to adhere for 24 h and then the syntheses were applied at different concentrations (5–100 μM). After adding syntheses at different concentrations, the wells were incubated for 24 h. All wells without syntheses were used as controls. After the incubation, the wells were treated with MTT solution to determine metabolically active cells and incubated at 37 °C for 3 h. After the MTT interaction, the wells were emptied and DMSO solution was placed in them. The formazan crystals formed were dissolved with this solution and the number of viable cells in each well was determined by color change. The absorbance values were read at 540 nm with the help of a microplate and the values found were represented as mean ± standard deviation (±SD).[66],[67]
(Tetrazolium dyes change colour on reduction, which living cells bring about.)

As to `O=C(CSc1nnc(Nc2ccccc2)s1)N(Cc1ccc([N+](=O)[O-])cc1)c1ccc(Cl)cc1` [6g, N-(4-Chlororophenyl)-2-[(5-(phenylamino)-1,3,4-thiadiazol-2-yl)thio]-N-(4-nitrobenzyl) Acetamide], in test [1] (Lineweaver–Burk plots, read-out: α-GLY KI), the Ki was found to be 12 ± 0.97 µM. Besides, the IC50 is 12.2 ± 0.87 µM in test [1] (mean ± SEM, read-out: α-GLY IC50) and 99.5 ± 5.66 µM in test [2].
